pIC50, pKi: −log10 of the molar value. Activity calls are given as the source filed them. The calls are words filed in the database; no cut-off is given here.
How the values were obtained:
HCT-116 = assay: Growth inhibition of HCT116 cells by MTT assay; assay type: functional, cell-based; conditions: Homo sapiens
PC-3 = assay: Growth inhibition of PC3 cells; conditions: Homo sapiens
[1] = target: Casein kinase II subunit alpha (Zea mays, UniProt P28523); assay: Inhibition of corn CK2 alpha
Sequence of Casein kinase II subunit alpha (P28523 whole entry): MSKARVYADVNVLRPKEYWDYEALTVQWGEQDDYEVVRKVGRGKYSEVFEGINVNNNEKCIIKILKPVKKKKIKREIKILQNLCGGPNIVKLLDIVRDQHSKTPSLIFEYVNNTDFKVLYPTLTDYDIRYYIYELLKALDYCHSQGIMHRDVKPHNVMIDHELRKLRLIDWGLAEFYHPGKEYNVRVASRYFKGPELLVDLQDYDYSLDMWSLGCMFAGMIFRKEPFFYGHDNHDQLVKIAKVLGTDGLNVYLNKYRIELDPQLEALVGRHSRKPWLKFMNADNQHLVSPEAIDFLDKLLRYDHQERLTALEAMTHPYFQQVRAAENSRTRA

SMILES | pIC50 (HCT-116) | further results
CC(=O)Nc1cccc(Nc2nc(Nc3ccccc3)n3ncc(C#N)c3n2)c1 | 6.00 | –
CC(=O)Nc1cccc(Nc2nc(Nc3ccc(CN4CCNCC4)cc3)n3ncc(C#N)c3n2)c1 | 5.97 | pIC50 (PC-3): 5.85
CCOc1cccc(Nc2nc(Nc3cccc(NC(C)=O)c3)nc3c(C#N)cnn23)c1 | 5.83 | pIC50 (PC-3): 5.92
CN(c1ccccc1)c1nc(Nc2ccccc2)n2ncc(C#N)c2n1 | – | pKi [1]: 6.62
CC(=O)Nc1cccc(Nc2nc(NC3CC3)n3ncc(Br)c3n2)c1 | 4.74 | –
CCN(CC)Cc1ccc(Nc2nc(Nc3cccc(NC(C)=O)c3)nc3c(C#N)cnn23)cc1 | 5.66 | –
N#Cc1cnn2c(Nc3ccccc3)nc(Nc3ccccc3)nc12 | – | pKi [1]: 7.62
CCN(CC)C(=O)c1cccc(Nc2nc(Nc3cccc(NC(C)=O)c3)nc3c(C#N)cnn23)c1 | 6.12 | pIC50 (PC-3): 6.21
CC(=O)Nc1cccc(Nc2nc(Nc3cccc(OC(F)F)c3)n3ncc(C#N)c3n2)c1 | 5.68 | pIC50 (PC-3): 5.77
CC(=O)Nc1cccc(Nc2nc(NC3CC3)n3ncc(C)c3n2)c1 | 4.37 | –
CC(=O)Nc1cccc(Nc2nc(Nc3ccccc3)n3ncc(C)c3n2)c1 | 5.12 | –
CC(=O)Nc1cccc(Nc2nc(Nc3cccc(C(=O)N4CCCC4)c3)n3ncc(C#N)c3n2)c1 | 5.85 | pIC50 (PC-3): 6.11
CC(=O)Nc1cccc(Nc2nc(Nc3cccc(C(=O)NCCN(C)C)c3)n3ncc(C#N)c3n2)c1 | 4.41 | –
CC(=O)Nc1cccc(Nc2nc(NC3CCC3)n3ncc(C#N)c3n2)c1 | 5.26 | –
CC(=O)Nc1cccc(Nc2nc(Nc3cccc(C(=O)O)c3)n3ncc(C#N)c3n2)c1 | – | Activity (HCT-116): inactive
CCN(CC)c1cccc(Nc2nc(Nc3cccc(NC(C)=O)c3)nc3c(C#N)cnn23)c1 | 5.60 | –
CC(=O)Nc1cccc(Nc2nc(NC3CC3)n3ncc(C#N)c3n2)c1 | 5.64 | –

Source: ChEMBL document CHEMBL1145386, “Structure-based design, synthesis, and study of pyrazolo[1,5-a][1,3,5]triazine derivatives as potent inhibitors of protein kinase CK2” (Bioorg Med Chem Lett, 2007)
